Assay results reported in BindingDB's records for doi:10.1021/jm00003a020 (University of Washington, 1995).

Assay: Inhibitory concentration was determined against delta-opioid receptor using [3H]- DPDPE radioligand

Row | SMILES | IC50 [nM]
1 | Oc1ccc2c3c1O[C@H]1[C@H](OCc4cccc(N=C=S)c4)CC[C@@]4(O)C(C2)N(CC2CC2)CCC314 (stereo partly drawn) [4-cyclopropylmethyl-14-(3-isothiocyanatobenzyloxy)-(1S,13R,14R,17S)-12-oxa-4-azapentacyclo[9.6.1.01,13.05,17.07,18]octadeca-7,9,11(18)-triene-10,17-diol(m-NCS)] | 6.5
2 | Oc1ccc2c3c1O[C@H]1[C@H](OCc4cccc(CN=C=S)c4)CC[C@@]4(O)C(C2)N(CC2CC2)CCC314 (stereo partly drawn) [4-cyclopropylmethyl-14-(3-isothiocyanatomethylbenzyloxy)-(1S,13R,14R,17S)-12-oxa-4-azapentacyclo[9.6.1.01,13.05,17.07,18]octadeca-7,9,11(18)-triene-10,17-diol(m-CH2NCS)] | 12
3 | Oc1ccc2c3c1O[C@H]1[C@H](OCc4ccccc4N=C=S)CC[C@@]4(O)C(C2)N(CC2CC2)CCC314 (stereo partly drawn) [4-cyclopropylmethyl-14-(2-isothiocyanatobenzyloxy)-(13R,14R,17S)-12-oxa-4-azapentacyclo[9.6.1.01,13.05,17.07,18]octadeca-7,9,11(18)-triene-10,17-diol(o-NCS)] | 1.8
4 | Oc1ccc2c3c1O[C@H]1[C@H](OCc4ccccc4CN=C=S)CC[C@@]4(O)C(C2)N(CC2CC2)CCC314 (stereo partly drawn) [4-cyclopropylmethyl-14-(2-isothiocyanatomethylbenzyloxy)-(1S,13R,14R,17S)-12-oxa-4-azapentacyclo[9.6.1.01,13.05,17.07,18]octadeca-7,9,11(18)-triene-10,17-diol(o-CH2NCS)] | 22
5 | Oc1ccc2c3c1O[C@H]1[C@H](OCc4ccc(N=C=S)cc4)CC[C@@]4(O)C(C2)N(CC2CC2)CCC314 (stereo partly drawn) [4-cyclopropylmethyl-14-(4-isothiocyanatobenzyloxy)-(1S,13R,14R,17S)-12-oxa-4-azapentacyclo[9.6.1.01,13.05,17.07,18]octadeca-7,9,11(18)-triene-10,17-diol(p-NCS)] | 35
